Experimental data: US11850273B2, “Chemical reprogramming of human glial cells into neurons for brain and spinal cord repair” (The Penn State Research Foundation, priority 2014, dated 2023)
pIC50: −log10 of the molar value. Entries after “also recorded” stand apart in the source; their conditions may differ.

How the values were obtained:
human astrocytes = test: Withdrawal of each individual compound from the 9 small molecule pool; format: cell-based; details: 14 days post initial treatment; for effect of removal from the 9 small molecule pool on number of converted neurons / reprogramming efficiency: SAG and Purmo removed together
From the text: This Example describes analysis of functional roles of each individual compound during chemical reprogramming. To dissect out the contribution of each single molecule toward reprogramming, we performed a series of experiments by withdrawing each individual compound from our cocktail pool (FIG. 6). […] FIG. 6K illustrates the summarized data of drug withdrawing experiments. While it is not a surprise that Tzv had no effect since it mainly acts as a cell survival factor, it was unexpected to find that removing TTNPB had no effect. […] On the other hand, the inhibition of Notch signaling, GSK-3β, and BMP/TGFβ signaling pathways appeared to be important for reprogramming astrocytes into neurons. […] Reprogramming human astrocytes into neurons. The astrocytes were cultured on poly-D-lysine (Sigma) coated coverslips (12 mm) at a density of 50,000 cells per coverslip in 24-well plates (BD Biosciences). The cells were cultured in human astrocyte medium until 90% confluence. At day 0 before reprogramming, half of the culture medium was replaced by N2 medium consisting of DMEM/F12 (Gibco), penicillin/streptomycin (Gibco) and N2 supplements (Gibco). The following day (Day 1), the culture medium was completely replaced by N2 medium supplemented with small molecules, or with 1% DMSO in control group. […] To promote synaptic maturation of converted neurons, brain-derived neurotrophic factor (BDNF, 20 ng/Ml, Invitrogen), Insulin-like growth factor 1 (IGF-1, 10 ng/ml, Invitrogen) and neurotrophin 3 (NT-3, 10 ng/ml, Invitrogen) were added in neuronal differentiation medium at day 9 and were refreshed every four days until day 30 (Song et al., 2002).

[1] = cited from earlier work
[2] = test system: human astrocyte-converted neurons; test: Patch clamp whole-cell recordings of human astrocyte-converted neurons
Notch = details: cited from earlier work
gamma secretase = details: read-out: IC50 γ-secretase; cited from earlier work
[3] = test system: human cortical astrocytes (HA1800, ScienCell); format: cell-based; details: VPA in reprogramming medium longer than 2 days
[4] = test system: BACE1, BACE2, α-secretase, the proteasome or GSK3β; details: cited from earlier work
[5] = test system: Notch cleavage and Notch-mediated intracellular signaling; details: cited from earlier work
[6] = test system: Aβ40 and Aβ42 in SH-SY5Y neuroblastoma cells; details: cited from earlier work
TGFβR-I = TGFβR-I (Homo sapiens, UniProt P36897); details: cited from earlier work
[7] = test system: Aβ42 in human neuroblastoma cells; details: cited from earlier work
[8] = test system: Aβ40 in human neuroblastoma cells; details: cited from earlier work
[9] = test system: mouse embryonic stem cells; details: At 400 Nm; cited from earlier work
GSK-3β = GSK-3β (Homo sapiens, UniProt P49841); details: cited from earlier work
Sequence of GSK-3β (P49841 whole entry, species assumed): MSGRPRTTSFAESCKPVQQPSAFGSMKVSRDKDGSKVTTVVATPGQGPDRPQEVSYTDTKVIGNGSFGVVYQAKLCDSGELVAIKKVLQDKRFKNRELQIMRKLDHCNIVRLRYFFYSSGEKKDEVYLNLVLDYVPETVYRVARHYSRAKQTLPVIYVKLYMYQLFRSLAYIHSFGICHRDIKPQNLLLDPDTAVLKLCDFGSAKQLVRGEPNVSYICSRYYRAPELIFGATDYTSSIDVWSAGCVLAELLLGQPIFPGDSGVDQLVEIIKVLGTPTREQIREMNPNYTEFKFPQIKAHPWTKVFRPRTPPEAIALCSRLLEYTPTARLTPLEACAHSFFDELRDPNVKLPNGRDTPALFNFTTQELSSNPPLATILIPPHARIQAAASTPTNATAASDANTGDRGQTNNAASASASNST

Sequence of TGFβR-I (P36897 34-503): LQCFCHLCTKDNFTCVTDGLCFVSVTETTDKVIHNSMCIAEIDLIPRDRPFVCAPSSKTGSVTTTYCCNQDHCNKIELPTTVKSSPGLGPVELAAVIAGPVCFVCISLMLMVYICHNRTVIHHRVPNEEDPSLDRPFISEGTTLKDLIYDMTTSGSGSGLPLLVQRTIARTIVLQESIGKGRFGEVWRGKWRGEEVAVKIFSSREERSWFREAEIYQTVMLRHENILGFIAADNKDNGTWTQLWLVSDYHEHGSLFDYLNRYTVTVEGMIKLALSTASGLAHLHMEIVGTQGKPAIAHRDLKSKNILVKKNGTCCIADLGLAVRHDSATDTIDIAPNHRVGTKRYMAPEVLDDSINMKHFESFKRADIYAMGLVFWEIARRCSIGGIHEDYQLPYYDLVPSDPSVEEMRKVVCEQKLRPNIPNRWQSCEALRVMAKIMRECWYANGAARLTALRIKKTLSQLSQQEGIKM

Compound: O=C(NCc1ccccc1)c1csc(Nc2ccncn2)n1 [Tzv, thiazovivin]
- effect of individual removal from the 9 small molecule pool on number of converted neurons / reprogramming efficiency (human astrocytes): did not affect; also recorded: did not have a significant effect

Compound: C[C@H](NC(=O)Cc1cc(F)cc(F)c1)C(=O)N[C@H](C(=O)OC(C)(C)C)c1ccccc1 [DAPT]
- effect of individual removal from the 9 small molecule pool on number of converted neurons / reprogramming efficiency (human astrocytes): significantly reduced; also recorded: most significant reduction

Compound: N#Cc1ccc2[nH]c(O)c(-c3ccc(CN4CCOCC4)cn3)c2c1 [AZD1080]
- oral activity and brain permeability [1]: selective, orally active, brain permeable GSK3 inhibitor

Compound: DNQX
- effect on the majority of synaptic events at −70 mV [2]: blocked

Compound: C[C@H](NC(=O)CCC(F)(F)F)C(=O)N[C@@H]1C(=O)N(CCO)c2ncccc2-c2ccccc21 [LY3039478]
- pIC50 (Notch): 9.39

Compound: CC(C)(C(=O)NCC(F)(F)C(F)(F)F)C(=O)N[C@@H]1C(=O)Nc2ccccc2-c2ccccc21 [RO4929097]
- pIC50 (gamma secretase): 8.40

Compound: CCCC(CCC)C(=O)O [VPA, valproic acid]
- effect of individual removal from the 9 small molecule pool on number of converted neurons / reprogramming efficiency (human astrocytes): slightly reduced
- cell death [3]: increased cell death

Compound: NC(=O)c1ccc(-c2nc(-c3ccc4c(c3)OCO4)c(-c3ccccn3)[nH]2)cc1 [SB431542, -[4-(1,3-benzodioxol-5-yl)-5-(2-pyridinyl)-1H-imidazol-2-yl]benzamide]
- effect of individual removal from the 9 small molecule pool on number of converted neurons / reprogramming efficiency (human astrocytes): significantly reduced

Compound: COc1oc(=O)c2cc(N)ccc2c1Cl [LK 6]
- activity on BACE1, BACE2, α-secretase, the proteasome or GSK3β [4]: signaling. Displays no activity on BACE1, BACE2,
- effect on Notch cleavage and Notch-mediated intracellular signaling [5]: no effect

Compound: O=S(=O)(NC1CCC(c2cc(F)ccc2F)(S(=O)(=O)c2ccc(Cl)cc2)CC1)C(F)(F)F (stereo not shown) [MRK 560]
- pIC50 [6]: 9.19
- oral bioavailability [1]: Orally bioavailable.

Compound: C/C(=C\c1ccc(C(=O)O)cc1)c1ccc2c(c1)C(C)(C)CCC2(C)C [TTNPB]
- effect of individual removal from the 9 small molecule pool on number of converted neurons / reprogramming efficiency (human astrocytes): did not affect; also recorded: did not have a significant effect

Compound: LY364947
- selectivity over TGFβR-II (TGFβR-I): shows 7-fold selectivity over TGFβR-II.

Compound: CC(C)C[C@H](NC(=O)[C@H](Cc1ccccc1)C[C@@H](O)[C@H](Cc1ccccc1)NC(=O)OC(C)(C)C)C(=O)N[C@@H](Cc1ccccc1)C(N)=O [L-685, 458]
- pIC50 [7]: 7.17
- pIC50 [8]: 7.32
- pIC50 (gamma secretase): 7.77

Compound: c1ccc2c(Oc3nc(Nc4ccc(N5CCOCC5)cc4)c4ncn(C5CCCCC5)c4n3)cccc2c1 [Purmo, purmorphamine]
- effect of removal from the 9 small molecule pool on number of converted neurons / reprogramming efficiency (human astrocytes): slightly reduced

Compound: CNC1CCC(N(Cc2cccc(-c3ccncc3)c2)C(=O)c2sc3ccccc3c2Cl)CC1 (stereo not shown) [SAG]
- effect of removal from the 9 small molecule pool on number of converted neurons / reprogramming efficiency (human astrocytes): slightly reduced

Compound: Nc1cccc(-c2cc3c(Oc4cccc(O)c4)ncnc3[nH]2)c1 [TWS119]
- neurogenesis in mouse embryonic stem cells [9]: TWS119 induces neurogenesis in mouse embryonic
- pIC50 (GSK-3β): 7.52
